Results: the supplement of paper PMC11061612

Tests used:
[1] = tested on: SU8686 (Pancreatic Carcinoma); test: Bliss excess, mean over the matrix (fraction); higher = more synergy
In short: (§1)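 Bliss excess equals the observed combination effect minus the expected value EA + EB − EA·EB, where EA and EB are the effects of each agent alone. Combination Emax is the second-highest inhibition within the matrix. Inhibition was scaled from CellTiter-Glo 2.0 luminescence, with 0 set by vehicle wells and 1 by blank wells, after 72 hours of two-drug dosing of cells plated in 1536-well plates.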

[2] = tested on: HSC-4 (Oral Cavity Carcinoma); test: as above
In short: as §1

[3] = tested on: HOP-62 (Lung Adenocarcinoma); test: as above
In short: as §1

[4] = tested on: HGC-27 (Gastric Carcinoma); test: as above
In short: as §1

[5] = tested on: NEC8 (Other Solid Carcinomas); test: as above
In short: as §1

[6] = tested on: NCI-H1915 (Non-Small Cell Lung Carcinoma); test: as above
In short: as §1

[7] = tested on: OE19 (Esophageal Adenocarcinoma); test: as above
In short: as §1

[8] = tested on: C-4-I (Cervical Carcinoma); test: as above
In short: as §1

[9] = tested on: VA-ES-BJ (Other Solid Carcinomas); test: as above
In short: as §1

[10] = tested on: JVM-3 (B-Cell Non-Hodgkin's Lymphoma); test: as above
In short: as §1

[11] = tested on: SCC-15 (Oral Cavity Carcinoma); test: as above
In short: as §1

[12] = tested on: OVCAR-4 (Ovarian Carcinoma); test: as above
In short: as §1

[13] = tested on: TE-1 (Esophageal Squamous Cell Carcinoma); test: as above
In short: as §1

[14] = tested on: SU8686 (Pancreatic Carcinoma); test: combination Emax (second highest fraction inhibited in the dose matrix, 72 h); higher = more inhibition; extreme values may be limits of the assay
In short: as §1

[15] = tested on: HGC-27 (Gastric Carcinoma); test: as above
In short: as §1

[16] = tested on: NUGC-3 (Gastric Carcinoma); test: as above
In short: as §1

[17] = tested on: NCI-H1915 (Non-Small Cell Lung Carcinoma); test: as above
In short: as §1

[18] = tested on: OE19 (Esophageal Adenocarcinoma); test: as above
In short: as §1

[19] = tested on: C-4-I (Cervical Carcinoma); test: as above
In short: as §1

[20] = tested on: JVM-3 (B-Cell Non-Hodgkin's Lymphoma); test: as above
In short: as §1

Compound | Bliss excess [1] | Bliss excess [2] | Bliss excess [3] | Bliss excess [4] | Bliss excess [5] | Bliss excess [6] | Bliss excess [7] | Bliss excess [8] | Bliss excess [9] | Bliss excess [10] | Bliss excess [11] | Bliss excess [12] | Bliss excess [13] | combination Emax [14] | combination Emax [15] | combination Emax [16] | combination Emax [17] | combination Emax [18] | combination Emax [19] | combination Emax [20]
COc1cc2c(cc1OCCCCCOc1cc3c(cc1OC)C(=O)N1C=C(C)C[C@H]1C=N3)N=C[C@@H]1CC(C)=CN1C2=O [SG3199] + O=C(c1cc(Cc2n[nH]c(=O)c3ccccc23)ccc1F)N1CCN(C(=O)C2CC2)CC1 [Olaparib] (first compound max 0.001 µM, 7x7, partner max 10 µM) | -0.0388 | -0.046 | -0.0276 | 0.0358 | 0.0376 | -0.0248 | 0.0098 | -0.012 | 0.0099 | -0.0278 | -0.03 | -0.0193 | -0.0286 | 0.0347 | 0.464 | 0.124 | 0.353 | 0.216 | 0.184 | 0.335
Cc1cc2ncnn2cc1Nc1ncc2c(n1)n(C1CCOCC1)c(=O)n2C [AZD7648] + O=C(c1cc(Cc2n[nH]c(=O)c3ccccc23)ccc1F)N1CCN(C(=O)C2CC2)CC1 [Olaparib] (first compound max 10 µM, 7x7, partner max 10 µM) | -0.0457 | -0.0448 | -0.0528 | -0.0092 | 0.0327 | -0.0215 | -0.0097 | 0.005 | -0.0416 | -0.0053 | -0.0408 | -0.0214 | -0.0298 | 0.0508 | 0.629 | 0.349 | 0.372 | 0.289 | 0.224 | 0.499
CN(CCO)CC[C@H](CSc1ccccc1)Nc1ccc(S(=O)(=O)NC(=O)c2ccc(N3CCC([C@@H](O)c4ccccc4-c4ccc(Cl)cc4)CC3)cc2)cc1S(=O)(=O)C(F)(F)F [AZD4320] + C1CN(CCC1(C(=O)N[C@@H](CCO)C2=CC=C(C=C2)Cl)N)C3=NC=NC4=C3C=CN4 [Capivasertib] (first compound max 1 µM, 7x7, partner max 3 µM) | -0.0385 | -0.0269 | -0.0414 | -0.0252 | -0.0356 | -0.0459 | -0.0479 | -0.0101 | -0.0376 | -0.0162 | -0.0606 | -0.0417 | -0.0292 | 0.0053 | 0.775 | 0.127 | 0.116 | 0.333 | 0.145 | 0.889
CN(CCO)CC[C@H](CSc1ccccc1)Nc1ccc(S(=O)(=O)NC(=O)c2ccc(N3CCC([C@@H](O)c4ccccc4-c4ccc(Cl)cc4)CC3)cc2)cc1S(=O)(=O)C(F)(F)F [AZD4320] + C[C@@H]1COCCN1C2=NC(=NC(=C2)C3(CC3)[S@](=N)(=O)C)C4=C5C=CNC5=NC=C4 [AZD6738] (first compound max 1 µM, 7x7, partner max 10 µM) | -0.0222 | 0.12 | -0.0483 | -0.0321 | -0.0089 | -0.044 | -0.0789 | 0.0036 | -0.012 | -0.027 | 0.0475 | -0.0392 | -0.004 | 0.205 | 0.812 | 0.756 | 0.529 | 0.726 | 0.952 | 0.993
